Data published in patent US12419873B2, “Use of JAK inhibitors in preparation of drugs for treating JAK kinase-related diseases” (ZHUHAI UNITED LABORATORIES CO., LTD., priority 2020, dated 2025).
Entries after “also recorded” stand apart in the source; their conditions may differ.

What was measured:
[1] = tested on: DSS induced ulcerative colitis and Crohn's disease in mice; test: In vivo pharmacodynamic study on DSS induced inflammatory bowel disease (IBD) in mice; parameters: species or system mice (C57BL/6); Colon length: unit not given here; settings: for Colon length: after the experiment
Source text: Inflammatory bowl disease (IBD) is a kind of recurrent disease. It is difficult to cure, has a high recurrence rate, and has a poor prognosis, it has a certain correlation with the incidence of colon cancer. The development of drugs for the treatment of IBD will help alleviate the symptoms of ulcerative colitis and Crohn's disease and improve the quality of life of patients. The mouse inflammation model induced by dextran sulfate sodium (DSS) is similar to the human disease ulcerative colitis and Crohn's disease. It is a common classical model for preclinical evaluation of drug efficacy.
Preparation method of DSS: 20 g DSS was weighed, 1000 mL drinking water was added to form 2% DSS solution, and stored in a 4° C. refrigerator. It is effective within one month.
Preparation method of a solvent: Vehicle solution is an aqueous solution containing 0.5% methylcellulose and 0.5% Tween 80. Firstly, 5 g of methylcellulose was dissolved in 990 mL of pure water, then 5 g of Tween 80 was added in small amount for many times, mixed evenly and stored at room temperature.
Preparation method of compounds: the compound was weighed, an aqueous solution with a mass ratio of 0.5% methylcellulose+0.5% Tween 80 was added, and it was processed by ultrasonic until it was dissolved.
The adaptation period of the animals was 3 days. After adaptation, the animals were weighed every day. The blank group was given drinking water, and the other groups were given drinking water containing 2% DSS. The water volume was 5 mL/animal/day. The animals in the test drug group were administrated by gavage once a day. The blank group and […] group were given the same volume of vehicle, with the administration volume of 10 mL/kg. Every other day, the fecal viscosity was evaluated, feces were collected for fecal occult blood detection, and the disease activity index (DAI) score was calculated. DSS consumption was detected every day. Fresh DSS solution was replaced every two days. The dosing cycle was continuous intragastric administration for 7 days, followed by 4 days of drug withdrawal, followed by 7 days of continuous intragastric administration. Normal drinking water was changed when intragastric administration was stopped.
DAI is the sum of the scores of body weight, fecal viscosity and fecal occult blood. Among them, the semi quantitative detection method of piramine cave was adopted for detecting fecal occult blood, including adding piramine cave to the sample first, then adding hydrogen peroxide and ethanol solution, and reading and scoring the color within 2 min. Immediately generating purple blue is marked as 4+, generating the purple blue within 10 s is marked as 3+, generating purple red within 1 min is marked as 2+, and gradually generating the purple red within 1-2 min is marked as 1+, and generating no color reaction of purple orchid or purple red within the reading time is recorded as negative (−). After the experiment, the colon and spleen were taken, and the length of colon and the weight of spleen were measured. The spleen index was the ratio of spleen weight to body weight.

[2] = tested on: DNCB induced allergic dermatitis in mice; test: In vivo pharmacodynamic study on DNCB induced allergic dermatitis (AD) in mice
Experimental: The animal allergic dermatitis model induced by 1-chloro-2,4-dinitrobenzene (DNCB) is basically consistent with the clinical manifestations of AD patients.
Preparation method of solvent: vehicle solution is 30% PEG-400+70% (5% HP-β-CD), pH 4-5. Firstly, 35 g HP-β-CD was dissolved in 700 mL MilliQ pure water, 300 mL PEG-400 was added and mixed well, the pH was adjusted to 4-5, and stored at room temperature.
Preparation method of compounds: the compounds were weighed and added to 30% PEG-400+ 70% (5% HP-β-CD) solution (by volume), and ultrasonically processed. After the solution was fully mixed, it is load into glass bottles and stored in a 4° C. refrigerator.
Seventy male Balb/c mice were weighed and randomly divided into 7 groups with 10 mice in each group.
The animal adaptation period was 3 days. It was adapted to shaving on the back. After 2 days, it was sensitized with the modeling solution, coated with 20 μL 0.5% DNCB solution on the right ear of the mouse, applied with 200 μL 0.5% DNCB solution on the back, once a day for 3 days. The mice were stimulated from day 4, and applied with 10 μL 1% DNCB solution on the right ear of mice, 100 μL 1% DNCB solution on the back of mice, respectively, once every 3 days.
On days 3, 9, 15, 21, and 27, the severity of specific dermatitis was evaluated by evaluating four clinical inflammatory indicators of atopic dermatitis: Erythema/bleeding, scar/dryness, edema, and infiltration/erosion. Each evaluation index has four grades: 0, none; 1. slight; 2. moderate; 3. obvious; 4. very obvious. Sum the scores represents score of the skin. […] The spleen was taken and the spleen index was calculated: spleen index=spleen weight (mg)/body weight (g).
The experimental data were expressed by means±standard error (Mean±SEM), and all data were statistically analyzed by one-way ANOVA, with P<0.05 as the statistical difference.

[3] = molecular target: TYK2 (Homo sapiens (Human), UniProt P29597); test: In vitro activity test of TYK2 kinase; format: biochemical
Experimental: (§1) Recombinant human JAK1, JAK2, JAK3, TyK2 protease, main instruments and reagents were provided by Eurofins in the UK
(§2) All compounds were prepared into a 100% DMSO solution and reached 50 times the final determined concentration. The test compound was diluted by 3 times the concentration gradient, and the final concentration was 10 μM to 0.001 μM, 9 concentrations in total, and the content of DMSO in the detection reaction was 2%. The working stock solution of the compound was added to a determination hole as the first component of the reaction, and then the remaining components were added according to the detailed scheme determination below.
(§3) Mg/ATP mixture was added to start the reaction. After incubation at room temperature for 40 minutes, 0.5% phosphoric acid was added to stop the reaction.

[4] = molecular target: JAK3 (Homo sapiens (Human), UniProt P52333); test: In vitro activity test of JAK3 kinase; format: biochemical
Experimental: as §1, §2, §3

[5] = molecular target: JAK1 (Homo sapiens (Human), UniProt P23458); test: In vitro activity test of JAK1 kinase; format: biochemical
Experimental: as §1, §2, §3

[6] = day 2, 15 mg/kg p.o. qd, Mean±SEM
[7] = day 4, 15 mg/kg p.o. qd, Mean±SEM
[8] = day 6, 15 mg/kg p.o. qd, Mean±SEM
[9] = day 8, 15 mg/kg p.o. qd, Mean±SEM
[10] = day 12, 15 mg/kg p.o. qd, Mean±SEM
[11] = day 14, 15 mg/kg p.o. qd, Mean±SEM
[12] = day 16, 15 mg/kg p.o. qd, Mean±SEM
[13] = day 18, 15 mg/kg p.o. qd, Mean±SEM
[14] = after the experiment, 30 mg/kg p.o. qd, 28 days, Mean±SEM
[15] = day 3, 30 mg/kg p.o. qd from day 4, Mean±SEM
[16] = day 4, 30 mg/kg p.o. qd, Mean±SEM
[17] = day 9, 30 mg/kg p.o. qd, Mean±SEM
[18] = day 10, 30 mg/kg p.o. qd, Mean±SEM
[19] = day 13, 30 mg/kg p.o. qd, Mean±SEM
[20] = day 15, 30 mg/kg p.o. qd, Mean±SEM
[21] = day 16, 30 mg/kg p.o. qd, Mean±SEM
[22] = day 21, 30 mg/kg p.o. qd, Mean±SEM
[23] = day 27, 30 mg/kg p.o. qd, Mean±SEM
[24] = day 21 of administration, 30 mg/kg p.o.
[25] = day 2, 30 mg/kg p.o. qd, Mean±SEM
[26] = day 6, 30 mg/kg p.o. qd, Mean±SEM
[27] = day 8, 30 mg/kg p.o. qd, Mean±SEM
[28] = day 12, 30 mg/kg p.o. qd, Mean±SEM
[29] = day 14, 30 mg/kg p.o. qd, Mean±SEM
[30] = day 18, 30 mg/kg p.o. qd, Mean±SEM

JAK1, sequence (P23458 whole entry): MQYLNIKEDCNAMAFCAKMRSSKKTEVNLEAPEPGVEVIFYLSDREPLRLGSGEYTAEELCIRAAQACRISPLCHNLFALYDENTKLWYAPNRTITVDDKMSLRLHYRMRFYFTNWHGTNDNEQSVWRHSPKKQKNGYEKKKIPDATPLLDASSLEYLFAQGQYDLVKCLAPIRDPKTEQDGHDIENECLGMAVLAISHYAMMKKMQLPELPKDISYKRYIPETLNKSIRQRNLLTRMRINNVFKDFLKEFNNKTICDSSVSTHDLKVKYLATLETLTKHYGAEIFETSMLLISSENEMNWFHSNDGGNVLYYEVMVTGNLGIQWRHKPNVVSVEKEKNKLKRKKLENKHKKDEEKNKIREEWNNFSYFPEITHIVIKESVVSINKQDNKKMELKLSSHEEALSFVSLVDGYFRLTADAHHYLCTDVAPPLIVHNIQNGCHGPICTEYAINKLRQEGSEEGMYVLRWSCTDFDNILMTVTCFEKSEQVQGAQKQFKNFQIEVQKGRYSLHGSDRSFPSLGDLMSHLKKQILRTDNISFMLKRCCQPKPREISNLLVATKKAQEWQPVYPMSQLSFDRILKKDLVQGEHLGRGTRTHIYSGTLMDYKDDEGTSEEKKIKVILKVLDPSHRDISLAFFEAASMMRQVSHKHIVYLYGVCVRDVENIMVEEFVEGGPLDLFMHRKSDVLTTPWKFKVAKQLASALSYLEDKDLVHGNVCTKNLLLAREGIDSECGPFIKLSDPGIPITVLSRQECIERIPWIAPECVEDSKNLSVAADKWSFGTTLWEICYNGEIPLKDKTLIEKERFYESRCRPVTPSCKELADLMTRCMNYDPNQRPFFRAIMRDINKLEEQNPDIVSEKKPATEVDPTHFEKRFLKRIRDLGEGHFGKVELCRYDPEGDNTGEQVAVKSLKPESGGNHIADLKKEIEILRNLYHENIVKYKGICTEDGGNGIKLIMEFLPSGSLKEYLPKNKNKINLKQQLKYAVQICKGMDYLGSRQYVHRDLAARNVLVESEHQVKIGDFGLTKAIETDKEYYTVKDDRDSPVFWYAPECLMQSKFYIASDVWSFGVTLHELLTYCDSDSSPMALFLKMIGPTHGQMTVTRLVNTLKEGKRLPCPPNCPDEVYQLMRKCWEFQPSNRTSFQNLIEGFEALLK
TYK2, sequence (P29597 whole entry): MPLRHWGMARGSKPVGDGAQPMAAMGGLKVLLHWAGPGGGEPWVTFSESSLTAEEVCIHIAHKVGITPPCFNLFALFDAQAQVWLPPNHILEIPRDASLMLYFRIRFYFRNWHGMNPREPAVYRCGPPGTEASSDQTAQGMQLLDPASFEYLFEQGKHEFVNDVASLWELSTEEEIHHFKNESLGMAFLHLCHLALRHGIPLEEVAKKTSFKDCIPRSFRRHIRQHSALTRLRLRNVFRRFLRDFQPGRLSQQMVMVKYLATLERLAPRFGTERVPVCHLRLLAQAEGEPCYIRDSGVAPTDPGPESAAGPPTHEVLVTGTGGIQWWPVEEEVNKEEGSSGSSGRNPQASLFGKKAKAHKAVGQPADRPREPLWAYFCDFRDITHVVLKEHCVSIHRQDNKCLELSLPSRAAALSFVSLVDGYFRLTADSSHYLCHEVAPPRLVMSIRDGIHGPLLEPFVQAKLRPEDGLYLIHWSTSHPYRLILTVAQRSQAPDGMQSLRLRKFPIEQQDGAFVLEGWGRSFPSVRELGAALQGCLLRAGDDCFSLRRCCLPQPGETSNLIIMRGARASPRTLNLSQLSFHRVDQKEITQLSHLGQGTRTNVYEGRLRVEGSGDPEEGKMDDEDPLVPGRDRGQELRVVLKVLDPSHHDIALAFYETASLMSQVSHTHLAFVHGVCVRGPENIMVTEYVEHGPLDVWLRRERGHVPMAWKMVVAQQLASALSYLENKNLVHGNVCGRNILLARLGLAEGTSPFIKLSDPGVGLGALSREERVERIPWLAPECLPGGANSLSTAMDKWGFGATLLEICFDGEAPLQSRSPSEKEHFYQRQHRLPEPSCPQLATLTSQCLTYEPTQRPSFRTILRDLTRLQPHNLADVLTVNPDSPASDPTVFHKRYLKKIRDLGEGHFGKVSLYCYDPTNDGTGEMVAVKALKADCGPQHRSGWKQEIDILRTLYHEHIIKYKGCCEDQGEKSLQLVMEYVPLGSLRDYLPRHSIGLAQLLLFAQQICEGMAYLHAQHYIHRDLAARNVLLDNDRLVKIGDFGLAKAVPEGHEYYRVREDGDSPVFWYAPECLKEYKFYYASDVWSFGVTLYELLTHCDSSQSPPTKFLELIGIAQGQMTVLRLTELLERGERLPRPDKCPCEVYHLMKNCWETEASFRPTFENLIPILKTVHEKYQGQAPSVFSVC
JAK3, sequence (P52333 whole entry): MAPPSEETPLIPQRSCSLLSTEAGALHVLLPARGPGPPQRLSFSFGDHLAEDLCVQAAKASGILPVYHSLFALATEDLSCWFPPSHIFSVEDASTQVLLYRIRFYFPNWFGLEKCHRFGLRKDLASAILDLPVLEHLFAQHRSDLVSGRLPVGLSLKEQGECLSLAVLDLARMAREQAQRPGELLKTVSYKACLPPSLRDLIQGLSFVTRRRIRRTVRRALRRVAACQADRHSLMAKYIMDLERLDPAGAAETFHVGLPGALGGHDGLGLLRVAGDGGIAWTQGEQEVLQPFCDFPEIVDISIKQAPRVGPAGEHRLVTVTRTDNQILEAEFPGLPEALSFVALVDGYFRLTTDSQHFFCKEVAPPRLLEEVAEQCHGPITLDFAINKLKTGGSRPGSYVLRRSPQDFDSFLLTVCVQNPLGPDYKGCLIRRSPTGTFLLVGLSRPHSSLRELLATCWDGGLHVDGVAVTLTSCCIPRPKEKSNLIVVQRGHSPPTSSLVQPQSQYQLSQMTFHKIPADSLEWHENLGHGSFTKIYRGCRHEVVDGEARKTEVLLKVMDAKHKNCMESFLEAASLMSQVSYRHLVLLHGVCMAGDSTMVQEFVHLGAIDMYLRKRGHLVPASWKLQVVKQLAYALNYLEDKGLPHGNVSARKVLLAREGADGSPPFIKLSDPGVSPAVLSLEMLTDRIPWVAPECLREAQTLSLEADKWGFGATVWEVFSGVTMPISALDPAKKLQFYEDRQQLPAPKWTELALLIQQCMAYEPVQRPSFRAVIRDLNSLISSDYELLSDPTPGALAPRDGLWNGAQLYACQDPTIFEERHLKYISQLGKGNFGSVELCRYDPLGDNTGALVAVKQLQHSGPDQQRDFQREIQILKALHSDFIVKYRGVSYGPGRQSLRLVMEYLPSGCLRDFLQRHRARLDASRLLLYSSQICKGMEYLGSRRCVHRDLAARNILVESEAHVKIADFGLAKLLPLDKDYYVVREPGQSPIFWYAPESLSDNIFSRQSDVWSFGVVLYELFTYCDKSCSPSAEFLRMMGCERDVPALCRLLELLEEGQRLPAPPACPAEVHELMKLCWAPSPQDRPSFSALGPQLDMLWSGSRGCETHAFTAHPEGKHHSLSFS

## N#CC1(C(=O)N2CC3(CCC(c4cccc5nc(NC(=O)C6CC6)nn45)CC3)C2)CC1 [Compound 1-11]
[1]; 15 mg/kg p.o. qd, Mean±SEM
  Colon length: 2.84 ± 0.21
[1]; day 1, 15 mg/kg p.o. qd, Mean±SEM
  Weight of mice: 22.63 ± 0.29
[1]; [6]
  DAI score: 0.30 ± 0.15
  Weight of mice: 22.64 ± 0.28
[1]; day 3, 15 mg/kg p.o. qd, Mean±SEM
  Weight of mice: 22.20 ± 0.28
[1]; [7]
  DAI score: 1.50 ± 0.34
  Weight of mice: 21.75 ± 0.25
[1]; day 5, 15 mg/kg p.o. qd, Mean±SEM
  Weight of mice: 20.90 ± 0.30
[1]; [8]
  DAI score: 3.50 ± 0.27
  Weight of mice: 20.33 ± 0.28
[1]; day 7, 15 mg/kg p.o. qd, Mean±SEM
  Weight of mice: 20.64 ± 0.38
[1]; [9]
  DAI score: 4.20 ± 0.79
  Weight of mice: 20.44 ± 0.58
[1]; day 9, 15 mg/kg p.o. qd, Mean±SEM
  Weight of mice: 19.49 ± 0.77
[1]; day 10, 15 mg/kg p.o. qd, Mean±SEM
  Weight of mice: 19.00 ± 0.87
[1]; day 11, 15 mg/kg p.o. qd, Mean±SEM
  Weight of mice: 19.73 ± 0.77
[1]; [10]
  DAI score: 3.11 ± 0.49
  Weight of mice: 20.09 ± 0.90
[1]; day 13, 15 mg/kg p.o. qd, Mean±SEM
  Weight of mice: 20.88 ± 0.86
[1]; [11]
  DAI score: 3.22 ± 0.79
  Weight of mice: 20.67 ± 0.84
[1]; day 15, 15 mg/kg p.o. qd, Mean±SEM
  Weight of mice: 20.82 ± 0.91
[1]; [12]
  DAI score: 4.44 ± 0.67
  Weight of mice: 20.41 ± 1.05
[1]; day 17, 15 mg/kg p.o. qd, Mean±SEM
  Weight of mice: 19.85 ± 1.05
[1]; [13]
  DAI score: 5.89 ± 0.51
  Weight of mice: 18.84 ± 1.06
[2]; 30 mg/kg p.o. qd, 28 days
  Effect on the weight of mice (in words): no significant effect
[2]; [14]
  IgE concentration in serum: 7.46 ± 1.34
  Thickness of the right ear: 0.283 ± 0.006
[2]; day 1, 30 mg/kg p.o. qd from day 4, Mean±SEM
  Weight of mice: 19.45 ± 0.59
[2]; [15]
  Skin score: 0.9 ± 0.3
[2]; [16]
  Weight of mice: 20.15 ± 0.46
[2]; [17]
  Skin score: 3.6 ± 1.1
[2]; [18]
  Weight of mice: 20.21 ± 0.62
[2]; [19]
  Weight of mice: 20.24 ± 0.41
[2]; [20]
  Skin score: 4.4 ± 0.8
[2]; [21]
  Weight of mice: 20.63 ± 0.43
[2]; day 19, 30 mg/kg p.o. qd, Mean±SEM
  Weight of mice: 22.50 ± 0.40
[2]; [22]
  Skin score: 5.4 ± 0.7
[2]; day 22, 30 mg/kg p.o. qd, Mean±SEM
  Weight of mice: 23.97 ± 0.42
[2]; day 25, 30 mg/kg p.o. qd, Mean±SEM
  Weight of mice: 22.45 ± 0.36
[2]; [23]
  Skin score: 2.9 ± 1.2
[2]; day 28, 30 mg/kg p.o. qd, Mean±SEM
  Weight of mice: 22.66 ± 0.34

## N#CCCN1CC2(CCC(c3cccc4nc(NC(=O)C5CC5)nn34)CC2)C1 [Compound 1-17]
[3]
  IC50: 0.371 µM
[4]
  IC50: > 10 µM
[5]
  IC50: 0.065 µM

## O=C(Nc1nc2cccc(C3CCC4(CC3)CN(C(=O)[C@@H]3CC3(F)F)C4)n2n1)C1CC1 [Compound 1-13]
[2]; 30 mg/kg p.o. qd, DNCB mice
  Effect on treating allergic dermatitis (in words): good disease treatment effect; also recorded: significant effect
[2]; 30 mg/kg p.o., vs DNCB group
  Thickness of the right ear after drug intervention (in words): significantly decreased
[2]; [14]
  Thickness of the right ear: 0.232 ± 0.004
[2]; [15]
  Skin score: 0.5 ± 0.5
[2]; [17]
  Skin score: 3.9 ± 1.6
[2]; [20]
  Skin score: 3.7 ± 0.6
[2]; [22]
  Skin score: 5.0 ± 1.0
[2]; [24]
  Effect on skin score compared with positive drug Alonson: better effect
  Skin score compared with DNCB group (in words): significantly decreased
[2]; [23]
  Skin score: 1.5 ± 0.5
[2]; day 27 of administration, 30 mg/kg p.o.
  Skin score compared with DNCB group (in words): significant reduction

## O=C(Nc1nc2cccc(-c3ccc(CN4CCS(=O)(=O)CC4)cc3)n2n1)C1CC1 [Filgotinib, reference compound]
[1]; 30 mg/kg p.o.
  Colon shortening caused by DSS, compared with DSS group (in words): can reduce colon shortening
  Increase of spleen index induced by DSS (in words): could reduce the increase of spleen index
[1]; 30 mg/kg p.o., vs DSS group
  Significance of inhibition of spleen index increase: significant inhibitory effect
[1]; 30 mg/kg p.o. qd, Mean±SEM
  Colon length: 3.13 ± 0.10
[1]; day 1, 30 mg/kg p.o. qd, Mean±SEM
  Weight of mice: 22.10 ± 0.42
[1]; [25]
  DAI score: 1.20 ± 0.42
  Weight of mice: 22.35 ± 0.41
[1]; day 3, 30 mg/kg p.o. qd, Mean±SEM
  Weight of mice: 22.11 ± 0.31
[1]; [16]
  DAI score: 2.20 ± 0.61
  Weight of mice: 22.07 ± 0.38
[1]; day 5, 30 mg/kg p.o. qd, Mean±SEM
  Weight of mice: 21.61 ± 0.47
[1]; [26]
  DAI score: 2.90 ± 0.43
  Weight of mice: 21.21 ± 0.55
[1]; day 7, 30 mg/kg p.o. qd, Mean±SEM
  Weight of mice: 20.28 ± 0.47
[1]; [27]
  DAI score: 6.40 ± 0.69
  Weight of mice: 19.65 ± 0.47
[1]; [17]
  Weight of mice: 18.57 ± 0.49
[1]; [18]
  Weight of mice: 17.98 ± 0.62
[1]; day 11, 30 mg/kg p.o. qd, Mean±SEM
  Weight of mice: 17.85 ± 0.80
[1]; [28]
  DAI score: 3.56 ± 0.82
  Weight of mice: 18.27 ± 0.91
[1]; [19]
  Weight of mice: 19.21 ± 0.94
[1]; [29]
  DAI score: 3.00 ± 0.57
  Weight of mice: 20.16 ± 0.61
[1]; [20]
  Weight of mice: 21.11 ± 0.58
[1]; [21]
  DAI score: 3.00 ± 0.96
  Weight of mice: 21.09 ± 0.53
[1]; day 17, 30 mg/kg p.o. qd, Mean±SEM
  Weight of mice: 20.58 ± 0.38
[1]; [30]
  DAI score: 3.52 ± 0.73
  Weight of mice: 19.59 ± 0.34
[1]; ratio of spleen weight to body weight, 30 mg/kg p.o. qd, Mean±SEM
  Spleen index: 4.04 ± 0.18
